Test results from article PMC3059997, “Exploring Indirect Sources of Human Exposure to Perfluoroalkyl Carboxylates (PFCAs): Evaluating Uptake, Elimination, and Biotransformation of Polyfluoroalkyl Phosphate Esters (PAPs) in the Rat” (Environmental Health Perspectives, 2010).

Tests used:
Assay type in all cases: in vivo, Sprague-Dawley rats
[1] = Uptake experiment: diPAP mixture by oral gavage, analytes in whole blood
Procedure: (§1) This research was conducted under an animal use protocol approved by the University of Toronto Animal Care Committee. All animals were treated humanely and with regard for alleviation of suffering. Sprague-Dawley rats were obtained from Charles River Laboratories Inc. (Sherbrooke, QC, Canada) The animals were singly housed and exposed to a 12/12 hr light/dark cycle with food and water available ad libitum. Blood samples were collected from the saphenous vein using Microvette CB 300 vials (Sarstedt AG & Co., Montreal, QC, Canada) embedded with lithium-heparin as an anticoagulant. Whole-blood samples were stored at −20°C, and urine and feces samples were stored at 4°C.
(§2) Two groups of four 8-week-old male rats were administered a mixture of 4:2, 6:2, 8:2, and 10:2 diPAP or monoPAP, respectively, each at about 50 mg/kg, at 4 mL/kg by oral gavage without prior fasting. […] Two control male rats were administered clean vehicle at 4 mL/kg [for details, see Supplemental Material, Table 3 (doi:10.1289/ehp.1002409)].
(§3) Blood was collected from all animals 3 days before dosing to establish background contamination. For the uptake experiment, blood samples were collected at 1, 3, and 6 hr and 1, 2, 4, 7, 10, 14, 18, and 22 days after dosing. For the elimination experiment, blood samples were collected at 2, 4, and 6 hr and 1, 2, 4, 8, 11, 15, and 18 days after dosing. On the final sampling day, the animals were sacrificed by carbon dioxide asphyxiation, and about 10 mL of blood was collected by cardiac puncture into a BD Vacutainer embedded with lithium-heparin.
(§4) The compounds of interest fall into four categories: a) the diPAP and monoPAP parent compounds, b) the saturated and unsaturated fluorotelomer carboxylic acid (FTCA and FTUCA) metabolic intermediates, c) the FTOH-sulfate and FTOH-glucuronide phase II metabolites, and d) the final PFCA biotransformation products [see Supplemental Material, Table 1 (doi:10.1289/ehp.1002409)]. We analyzed these compounds in whole blood, urine, and feces samples. For full analytical details, see Supplemental Material. All PFCAs, FTCAs, FTUCAs, and phase II metabolites were quantified by internal calibration. Because internal standards were not available, monoPAPs and diPAPs were quantified by standard addition. We performed spike and recovery experments to validate the extraction and quantification techniques used (for details, see Supplemental Material).
(§5) Analyte and matrix specific limits of detection (LODs) and limits of quantification (LOQs) are provided in Supplemental Material (doi:10.1289/ehp.1002409). For the purpose of calculating means, values < LOD were assigned a value of zero, and values < LOQ but > LOD were used unaltered but are indicated by asterisks in figures and parentheses in tables. Values are presented using the arithmetic mean ± SE. Full data sets are available in Supplemental Material. […]

[2] = Elimination experiment: monoPAP mixture by IV injection, analytes in whole blood
Procedure: as §1
(§6) Two groups of four 8-week-old male rats were administered a mixture of 4:2, 6:2, 8:2, and 10:2 diPAP or monoPAP, respectively, each at about 15 mg/kg, at 2 mL/kg by intravenous (IV) injection into the lateral tail vein. The dosing vehicle was 50:50 propylene glycol:water. Two control male rats were administered clean vehicle at 2 mL/kg [for details see Supplemental Material, Table 3 (doi:10.1289/ehp.1002409)].
as §3, §4
(§7) Analyte and matrix specific limits of detection (LODs) and limits of quantification (LOQs) are provided in Supplemental Material (doi:10.1289/ehp.1002409). For the purpose of calculating means, values < LOD were assigned a value of zero, and values < LOQ but > LOD were used unaltered but are indicated by asterisks in figures and parentheses in tables. Values are presented using the arithmetic mean ± SE. Full data sets are available in Supplemental Material.

[3] = Elimination experiment: diPAP mixture by IV injection, analytes in whole blood
Procedure: as §1, §6, §3, §4, §5

[4] = Renal elimination: analytes in urine collected in metabolic cages
Procedure: as §1, with “4°C. […]” for “4°C.”
as §4, with “For full analytical details, see Supplemental Material.” left out, “We performed spike and recovery experments to validate the extraction and quantification techniques used (for details, see Supplemental Material).” left out

[5] = Uptake experiment: monoPAP mixture by oral gavage, analytes in whole blood
Procedure: as §1, §2, §3, §4, §7

Compound: O=C(O)CC(F)(F)C(F)(F)C(F)(F)C(F)(F)F [4:2 FTCA]
- Detection in blood (time points) ([1]; after diPAP oral gavage): 6 hr postdosing, but in only one animal
- Detection in blood (time points) ([2]; after monoPAP IV dosing): 2 hr postdosing

Compound: O=C(O)[C@H]1O[C@@H](OCCC(F)(F)C(F)(F)C(F)(F)C(F)(F)F)[C@H](O)[C@@H](O)[C@@H]1O [4:2 FTOH-glucuronide]
- Detection in blood (time points) ([3]; rat, in vivo, iv): in the blood 2 hr postdosing
- Detection in blood (time points) ([2]; rat, in vivo, iv): in the blood 2 hr after dosing
- Observation in urine ([4]; rat, in vivo): consistently observed
- Detection in blood (time points) ([5]; rat, in vivo, po): observed at 2 hr and 6 hr postdosing

Compound: O=S(=O)(O)OCCC(F)(F)C(F)(F)C(F)(F)C(F)(F)F [4:2 FTOH-sulfate]
- Detection in blood (time points) ([3]; after IV diPAP dosing): in the blood 2 hr postdosing
- Detection in blood (time points) ([2]; after monoPAP IV dosing): in the blood 2 hr after dosing
- Observation in urine ([4]; urine samples from all dosing regimes): consistently observed

Compound: O=C(O)C=C(F)C(F)(F)C(F)(F)C(F)(F)F [4:2 FTUCA]
- Detection in blood (time points) ([1]; rat, in vivo, po): 6 hr postdosing, but in only one animal
- Detection in blood (time points) ([2]; rat, in vivo, iv): 2 hr postdosing

Compound: O=C(O)CCC(F)(F)C(F)(F)C(F)(F)C(F)(F)C(F)(F)F [5:3 FTCA]
- Detection in blood (time points) ([3]; after IV diPAP dosing): in the samples from 2 hr to 2 days postdosing
- Detection in blood (time points) ([2]; after monoPAP IV dosing): observed in the 2, 4, and 6-hr time points
- Detection in blood (time points) ([5]; after monoPAP oral gavage): present in all of the samples from 2 hr to 2 days postdosing

Compound: O=C(O)CC(F)(F)C(F)(F)C(F)(F)C(F)(F)C(F)(F)C(F)(F)F [6:2 FTCA]
- Detection in blood (time points) ([1]; after diPAP oral gavage): 6 hr postdosing, but in only one animal
- Detection in blood (time points) ([2]; after monoPAP IV dosing): 2 hr postdosing
- Detection in blood (time points) ([5]; after monoPAP oral gavage): blood samples taken 2, 4, and 6 hr postdosing

Compound: O=C(O)[C@H]1O[C@@H](OCCC(F)(F)C(F)(F)C(F)(F)C(F)(F)C(F)(F)C(F)(F)F)[C@H](O)[C@@H](O)[C@@H]1O [6:2 FTOH-glucuronide]
- Detection in blood (time points) ([5]; rat, in vivo, po): observed at 2 hr and 6 hr postdosing

Compound: O=C(O)C=C(F)C(F)(F)C(F)(F)C(F)(F)C(F)(F)C(F)(F)F [6:2 FTUCA]
- Detection in blood (time points) ([1]; rat, in vivo, po): 6 hr postdosing, but in only one animal
- Detection in blood (time points) ([2]; rat, in vivo, iv): observed in the 2, 4, and 6-hr time points

Compound: O=C(O)CCC(F)(F)C(F)(F)C(F)(F)C(F)(F)C(F)(F)C(F)(F)C(F)(F)F [7:3 FTCA]
- Detection in blood (time points) ([5]; after monoPAP oral gavage): present in all of the samples from 2 hr to 2 days postdosing
